Reference: ChEMBL document CHEMBL1201862, “PubChem BioAssay data set” (2004)
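48-hour exposure; five concentrations; linearly interpolated endpoints. GI50 = concentration required for 50% inhibition of growth.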 Active and inactive are the calls of the source. No stated cut-off is given here; in the data, active = GI50 up to about 1.1 µM and inactive = higher.

Key:
Test in all cases: NCI tumour cell line growth inhibition, 48 h
RPMI-8226 = system: RPMI-8226
KM-20L2 = system: KM-20L2
SW-620 = system: SW-620
ACHN = system: ACHN
NCI-H460 = system: NCI-H460
CCRF-CEM = system: CCRF-CEM
HCT-15 = system: HCT-15
LOX IMVI = system: LOX IMVI
OVCAR-8 = system: OVCAR-8
SNB-78 = system: SNB-78
CAKI-1 = system: CAKI-1
DMS-114 = system: DMS-114
U-251 = system: U-251
RXF 393 = system: RXF 393
SR = system: SR
HOP-62 = system: HOP-62
SF-295 = system: SF-295
KM12 = system: KM12
NCI-H226 = system: NCI-H226
SK-MEL-28 = system: SK-MEL-28
UO-31 = system: UO-31
M14 = system: M14
SF-268 = system: SF-268
SNB-19 = system: SNB-19
HT-29 = system: HT-29
A498 = system: A498
HCT-116 = system: HCT-116
786-0 = system: 786-0
SNB-75 = system: SNB-75
OVCAR-4 = system: OVCAR-4
Malme-3M = system: Malme-3M
NCI-H23 = system: NCI-H23
M19-MEL = system: M19-MEL
UACC-62 = system: UACC-62
XF498 = system: XF498
EKVX = system: EKVX
OVCAR-5 = system: OVCAR-5
SN12C = system: SN12C
MOLT-4 = system: MOLT-4
SF-539 = system: SF-539
IGROV-1 = system: IGROV-1
OVCAR-3 = system: OVCAR-3
COLO 205 = system: COLO 205
SK-MEL-5 = system: SK-MEL-5
TK-10 = system: TK-10
HL-60 = system: HL-60
K562 = system: K562
SK-OV-3 = system: SK-OV-3
HOP-92 = system: HOP-92
DMS-273 = system: DMS-273
UACC-257 = system: UACC-257
HCC 2998 = system: HCC 2998
A549 = system: A549
LXFL 529 = system: LXFL 529
NCI-H522 = system: NCI-H522
SK-MEL-2 = system: SK-MEL-2
HOP-18 = system: HOP-18
DLD-1 = system: DLD-1

Measured: GI50

COC(=O)C1=Cc2cc(OC)c(OC)cc2[C@H](c2ccc(OC)c(OC)c2)C1C(=O)OC (stereo not given in full)
inactive: RPMI-8226 > 100 µM | KM-20L2 > 100 µM | SW-620 > 100 µM | ACHN > 100 µM | NCI-H460 > 100 µM | CCRF-CEM > 100 µM | LOX IMVI > 100 µM | OVCAR-8 > 100 µM | SNB-78 > 100 µM | CAKI-1 > 100 µM | DMS-114 > 100 µM | U-251 > 100 µM | RXF 393 > 100 µM | SR > 100 µM | HOP-62 > 100 µM | SF-295 > 100 µM | KM12 > 100 µM | NCI-H226 > 100 µM | SK-MEL-28 > 100 µM | UO-31 > 100 µM | M14 > 100 µM | SF-268 > 100 µM | SNB-19 > 100 µM | HT-29 75.9 µM | A498 > 100 µM | HCT-116 > 100 µM | 786-0 > 100 µM | SNB-75 > 100 µM | OVCAR-4 > 100 µM | Malme-3M > 100 µM | NCI-H23 > 100 µM | M19-MEL > 100 µM | UACC-62 98.9 µM | XF498 > 100 µM | EKVX > 100 µM | OVCAR-5 > 100 µM | SN12C > 100 µM | MOLT-4 > 100 µM | SF-539 69.8 µM | IGROV-1 > 100 µM | OVCAR-3 > 100 µM | COLO 205 > 100 µM | SK-MEL-5 > 100 µM | TK-10 > 100 µM | HL-60 > 100 µM | K562 > 100 µM | SK-OV-3 > 100 µM | HOP-92 45.8 µM | DMS-273 > 100 µM | UACC-257 > 100 µM | HCC 2998 > 100 µM | A549 > 100 µM | LXFL 529 > 100 µM
76 µM: HCT-15

Cc1ccc(NC(=O)CCC(CC(=O)C(C)(C)C)=NNC(=O)C(=O)NN)cc1C
> 100 µM: HCT-15
inactive: RPMI-8226 > 100 µM | KM-20L2 > 100 µM | SW-620 > 100 µM | ACHN > 100 µM | NCI-H460 > 100 µM | CCRF-CEM > 100 µM | LOX IMVI > 100 µM | OVCAR-8 > 100 µM | CAKI-1 > 100 µM | RXF 393 > 100 µM | HOP-62 > 100 µM | SF-295 > 100 µM | NCI-H522 > 100 µM | SK-MEL-2 > 100 µM | KM12 > 100 µM | NCI-H226 > 100 µM | SK-MEL-28 > 100 µM | UO-31 > 100 µM | M14 > 100 µM | SF-268 > 100 µM | SNB-19 > 100 µM | HT-29 > 100 µM | 786-0 > 100 µM | HOP-18 > 100 µM | SNB-75 > 100 µM | OVCAR-4 > 100 µM | Malme-3M > 100 µM | NCI-H23 > 100 µM | M19-MEL > 100 µM | UACC-62 > 100 µM | XF498 64.4 µM | EKVX > 100 µM | OVCAR-5 > 100 µM | SN12C > 100 µM | MOLT-4 > 100 µM | SF-539 > 100 µM | IGROV-1 > 100 µM | OVCAR-3 > 100 µM | DLD-1 > 100 µM | COLO 205 > 100 µM | SK-MEL-5 > 100 µM | TK-10 > 100 µM | HL-60 > 100 µM | K562 > 100 µM | SK-OV-3 > 100 µM | DMS-273 > 100 µM | UACC-257 > 100 µM | HCC 2998 > 100 µM | A549 > 100 µM | LXFL 529 > 100 µM
